Tests used:
[1] = target: MMP-13CD (catalytic domain of collagenase-3) (Homo sapiens, UniProt P45452); assay: thiopeptolide substrate hydrolysis assay, MMP-13CD; format: biochemical
Text: (§1) The invention compounds of Formula I have been evaluated in standard assays for their ability to inhibit the activity of various MMP enzymes. The assays used to evaluate the biological activity of the invention compounds are well known and routinely used by those skilled in the study of MMP inhibitors and their use to treat clinical conditions.
(§2) Such assays are described in detail by Ye et al., in Biochemistry, 1992;31(45):11231-11235, which is incorporated herein by reference.
(§3) Thiopeptolide substrates show virtually no decomposition or hydrolysis in the absence of a matrix metalloproteinase enzyme. A typical thiopeptolide substrate commonly utilized for assays is Ac-Pro-Leu-Gly-thioester;-Leu-Leu-Gly-OEt. A 100 μL assay mixture will contain 50 mM of 2-morpholinoethane sulfonic acid monohydrate (MES, pH 6.0) 10 mM CaCl2, 100 μM thiopeptolide substrate, and 1 mM 5,5′-dithio-bis-(2-nitro-benzoic acid) (DTNB). The thiopeptolide substrate concentration is varied from 10 to 800 μM to obtain Km and Kcat values. The change in absorbance at 405 nm is monitored on a Thermo Max microplate reader (Molecular Devices, Menlo Park, Calif.) at room temperature (22° C.). The calculation of the amount of hydrolysis of the thiopeptolide substrate is based on E412=13600 m^−1 cm^−1 for the DTNB-derived product 3-carboxy-4-nitrothiophenoxide. Assays are carried out with and without matrix metalloproteinase inhibitor compounds, and the amount of hydrolysis is compared for a determination of inhibitory activity of the test compounds.
Several representative compounds have been evaluated for their ability to inhibit various matrix metalloproteinase enzymes. The invention compounds are uniquely active in inhibiting MMP-13. Table 1 below presents inhibitory activity for invention compounds in the column labelled “MMP-13CD IC50, μM”. In the table, MMP-13CD refers to the catalytic domain of collagenase-3. It has been shown previously (Ye Qi-Zhuang, Hupe D., Johnson L., Current Medicinal Chemistry, 1996;3:407-418) that inhibitor activity against a catalytic domain of an MMP is predictive of the inhibitor activity against the respective full-length enzyme. Test compounds were evaluated at various concentrations in order to determine their respective IC50 values, the micromolar concentration of compound required to cause a 50% inhibition of the hydrolytic activity of the respective enzyme.

MMP-9CD = target: T1, MMP-9CD (Homo sapiens, UniProt P14780); assay: thiopeptolide substrate hydrolysis assay, MMP-9CD; format: biochemical; conditions: Table 2, catalytic domain
T1 construct: "MMP-9CD"
T1 sequence (P14780 with tags, fused parts or gaps DEL216-390 limits assumed): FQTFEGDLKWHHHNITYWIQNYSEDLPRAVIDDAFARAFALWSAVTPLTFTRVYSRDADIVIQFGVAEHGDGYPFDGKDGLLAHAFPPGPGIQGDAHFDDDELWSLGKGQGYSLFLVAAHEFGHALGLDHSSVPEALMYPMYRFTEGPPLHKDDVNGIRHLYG
Text: as §1, §2, §3
(§4) The invention compounds are also selective inhibitors of MMP-13 versus other MMP enzymes, including versus MMP-7 and MMP-9. This is shown by comparing the IC50 data presented below in Table 2 in the columns labeled “MMP-7 IC50 (μM),” “MMP-9CD IC50 (μM),” and “MMP-13CD IC50 (μM),” respectively.

MMP-7 = target: T2, MMP-7 (Homo sapiens, UniProt P09237); assay: thiopeptolide substrate hydrolysis assay, MMP-7; format: biochemical; conditions: Table 2
T2 sequence (P09237 95-267): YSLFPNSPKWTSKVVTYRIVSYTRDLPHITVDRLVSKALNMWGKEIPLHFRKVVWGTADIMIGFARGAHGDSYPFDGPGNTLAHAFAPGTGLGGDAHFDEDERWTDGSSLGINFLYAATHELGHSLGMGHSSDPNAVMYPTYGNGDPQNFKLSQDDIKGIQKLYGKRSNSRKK
Text: as §1, §2, §3, §4

Row | SMILES | melting point | IC50 ([1]; Table 1) | IC50 (MMP-9CD) | IC50 (MMP-7) | IC50 ([1]; Table 2)
1 | Cc1sc(C(=O)NCc2ccc3c(c2)OCO3)cc1NC(=O)NCc1ccccc1 [Example 15b, 4-(3-Benzyl-ureido)-5-methyl-thiophene-2-carboxylic Acid (1,3-benzodioxol-5-ylmethyl)-amide] | 194 to 195 °C | 0.92 µM | 30 µM | 45 µM | –
2 | Cc1sc(C(=O)OCc2ccccc2)cc1NC(=O)NCc1ccccc1 [Example 13, 4-(3-Benzyl-ureido)-5-methyl-thiophene-2-carboxylic Acid Benzyl Ester] | 208 to 209 °C | 22 µM | 30 µM | 30 µM | –
3 | O=C(OCc1ccc2c(c1)OCO2)c1csc(C(=O)OCc2ccc3c(c2)OCO3)c1 [Example 5, Thiophene-2,4-dicarboxylic Acid di-1,3-benzodioxol-5-ylmethyl Ester] | 164 to 165 °C | 0.45 µM | 30 µM | 10 µM | –
4 | CNc1sc(C(=O)NCc2ccc(OC)cc2)cc1C(=O)NCc1ccc(C(=O)O)c(C)c1 [Example 21, 4-({[5-(4-Methoxy-benzylcarbamoyl)-2-methylamino-thiophene-3-carbonyl]-amino}-methyl)-2-methyl-benzoic Acid] | – | 3.4 µM | – | – | –
5 | COc1cc(C(=O)NCc2ccc3c(c2)OCO3)sc1C(=O)NCc1ccc2c(c1)OCO2 [Example 4, 3-Methoxy-thiophene-2,5-dicarboxylic Acid bis-[(1,3-benzodioxol-5-ylmethyl)-amide]] | 191 to 195 °C | 0.2 µM | – | 30 µM | –
6 | Cc1sc(C(=O)OCc2ccccc2)cc1NC(=O)Cc1ccccc1 [Example 9, 5-Methyl-4-phenylacetylamino-thiophene-2-carboxylic Acid Benzyl Ester] | 173 to 174 °C | 2.3 µM | – | – | –
7 | Cc1sc(C(=O)NCc2ccccc2)cc1NC(=O)NCc1ccccc1 [Example 14, 4-(3-Benzyl-ureido)-5-methyl-thiophene-2-carboxylic Acid Benzylamide] | – | 14 µM | 99 µM | – | –
8 | Cc1sc(C(=O)OCc2ccc3c(c2)OCO3)cc1NC(=O)Cc1ccccc1 [Example 11, 5-Methyl-4-phenylacetylamino-thiophene-2-carboxylic Acid 1,3-benzodioxol-5-ylmethyl Ester] | – | 0.19 µM | – | – | –
9 | COc1cc(C(=O)NCc2ccccc2)sc1C(=O)NCc1ccccc1 [Example 22, 3-Methoxy-thiophene-2,5-dicarboxylic Acid Bis Benzylamide] | – | ≥ 100 µM | – | – | –
10 | O=C(OCc1ccc2c(c1)OCO2)c1ccc(C(=O)OCc2ccc3c(c2)OCO3)s1 [Example 1, Thiophene-2,5-dicarboxylic Acid di-1,3-benzodioxol-5-ylmethyl Ester] | 141 to 148 °C | 8.6 µM | – | – | –
11 | O=C(NCc1ccc2c(c1)OCO2)c1ccc(C(=O)NCc2ccc3c(c2)OCO3)s1 [Example 2, Thiophene-2,5-dicarboxylic Acid bis-[(1,3-benzodioxol-5-ylmethyl)-amide]] | 207 to 209 °C | 0.85 µM | 30 µM | 30 µM | –
12 | Cc1sc(C(=O)NCc2ccccc2)cc1NC(=O)Cc1ccccc1 [Example 10, 5-Methyl-4-phenylacetylamino-thiophene-2-carboxylic Acid Benzylamide] | – | 30 µM | 30 µM | – | –
13 | Cn1cc(C(=O)OCc2ccc3c(c2)OCO3)cc1C(=O)OCc1ccc2c(c1)OCO2 [Example 7, 1-Methyl-1H-pyrrole-2,4-dicarboxylic Acid di-1,3-benzodioxol-5-ylmethyl Ester] | 103 to 110 °C | 0.97 µM | – | – | –

The remaining lines, values ahead:

Row | melting point | IC50 ([1]; Table 1) | IC50 (MMP-9CD) | IC50 (MMP-7) | IC50 ([1]; Table 2) | SMILES
14 | 153 to 155 °C | 3.6 µM | – | – | – | COc1cc(C(=O)OCc2ccc3c(c2)OCO3)sc1C(=O)OCc1ccc2c(c1)OCO2 [Example 3, 3-Methoxy-thiophene-2,5-dicarboxylic Acid di-1,3-benzodioxol-5-ylmethyl Ester]
15 | 138 to 140 °C | 2.7 µM | – | – | – | Cc1sc(C(=O)NCc2ccc3c(c2)OCO3)cc1NC(=O)Cc1ccccc1 [Example 12, 5-Methyl-4-phenylacetylamino-thiophene-2-carboxylic Acid (1,3-benzodioxol-5-ylmethyl)-amide]
16 | 185 to 187 °C | 2 µM | – | – | – | COC(=O)c1cc(NC(=O)NCc2ccccc2)c(C)s1 [Example 16, 5-Methyl-4-(3-benzyl-ureido)-thiophene-2-carboxylic Acid Methyl Ester]
17 | 147 to 152 °C | 3 µM | – | – | – | Cn1cc(C(=O)NCc2ccc3c(c2)OCO3)cc1C(=O)NCc1ccc2c(c1)OCO2 [Example 8, 1-Methyl-1H-pyrrole-2,4-dicarboxylic Acid bis-[(1,3-benzodioxol-5-ylmethyl)-amide]]
18 | 216 to 217 °C | – | – | – | 0.35 µM | Cc1sc(C(=O)OCc2ccc3c(c2)OCO3)cc1NC(=O)NCc1ccccc1 [Example 15a, 4-(3-Benzyl-ureido)-5-methyl-thiophene-2-carboxylic Acid 1,3-benzodioxol-5-ylmethyl Ester]
19 | 188 to 192 °C | 30 µM | – | – | – | O=C(NCc1ccccc1)Nc1nnc(C(=O)OCc2ccccc2)s1 [Example 23, 5-(3-Benzyl-ureido)-1,3,4-thiadiazole-2-carboxylic Acid Benzyl Ester]
20 | 174 to 175 °C | 0.37 µM | – | 32 µM | – | O=C(NCc1ccc2c(c1)OCO2)c1csc(C(=O)NCc2ccc3c(c2)OCO3)c1 [Example 6, Thiophene-2,4-dicarboxylic Acid bis-[(1,3-benzodioxol-5-ylmethyl)-amide]]

Source: patent US6924276B2, “Diacid-substituted heteroaryl derivatives as matrix metalloproteinase inhibitors” (Warner-Lambert Company, priority 2001, dated 2005)
